Experimental findings from patent publication US9855268B2, “Triazolo[4,5-d]pyrimidine derivatives” (Merck Patent GmbH, priority 2013, dated 2018) are described below.

Assay [1] has as its target T1, GCN2 (Homo sapiens, UniProt Q9P2K8). In words: GCN2 enzyme assay (TR-FRET Lanthascreen, GFP-eIF2alpha phosphorylation). It counts as biochemical. The settings on record: 10 μM ATP, 80 nM GFP-eIF2a, 30 nM GCN2. The essentials: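 Phosphorylation of GFP-eIF2alpha (80 nM) by GCN2 run at room temperature with 10 μM ATP. After EDTA quench, product quantified by Lanthascreen TR-FRET (antibody–GFP complex, 340 nm excitation).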
Target sequence in this assay (Q9P2K8 whole entry, species assumed): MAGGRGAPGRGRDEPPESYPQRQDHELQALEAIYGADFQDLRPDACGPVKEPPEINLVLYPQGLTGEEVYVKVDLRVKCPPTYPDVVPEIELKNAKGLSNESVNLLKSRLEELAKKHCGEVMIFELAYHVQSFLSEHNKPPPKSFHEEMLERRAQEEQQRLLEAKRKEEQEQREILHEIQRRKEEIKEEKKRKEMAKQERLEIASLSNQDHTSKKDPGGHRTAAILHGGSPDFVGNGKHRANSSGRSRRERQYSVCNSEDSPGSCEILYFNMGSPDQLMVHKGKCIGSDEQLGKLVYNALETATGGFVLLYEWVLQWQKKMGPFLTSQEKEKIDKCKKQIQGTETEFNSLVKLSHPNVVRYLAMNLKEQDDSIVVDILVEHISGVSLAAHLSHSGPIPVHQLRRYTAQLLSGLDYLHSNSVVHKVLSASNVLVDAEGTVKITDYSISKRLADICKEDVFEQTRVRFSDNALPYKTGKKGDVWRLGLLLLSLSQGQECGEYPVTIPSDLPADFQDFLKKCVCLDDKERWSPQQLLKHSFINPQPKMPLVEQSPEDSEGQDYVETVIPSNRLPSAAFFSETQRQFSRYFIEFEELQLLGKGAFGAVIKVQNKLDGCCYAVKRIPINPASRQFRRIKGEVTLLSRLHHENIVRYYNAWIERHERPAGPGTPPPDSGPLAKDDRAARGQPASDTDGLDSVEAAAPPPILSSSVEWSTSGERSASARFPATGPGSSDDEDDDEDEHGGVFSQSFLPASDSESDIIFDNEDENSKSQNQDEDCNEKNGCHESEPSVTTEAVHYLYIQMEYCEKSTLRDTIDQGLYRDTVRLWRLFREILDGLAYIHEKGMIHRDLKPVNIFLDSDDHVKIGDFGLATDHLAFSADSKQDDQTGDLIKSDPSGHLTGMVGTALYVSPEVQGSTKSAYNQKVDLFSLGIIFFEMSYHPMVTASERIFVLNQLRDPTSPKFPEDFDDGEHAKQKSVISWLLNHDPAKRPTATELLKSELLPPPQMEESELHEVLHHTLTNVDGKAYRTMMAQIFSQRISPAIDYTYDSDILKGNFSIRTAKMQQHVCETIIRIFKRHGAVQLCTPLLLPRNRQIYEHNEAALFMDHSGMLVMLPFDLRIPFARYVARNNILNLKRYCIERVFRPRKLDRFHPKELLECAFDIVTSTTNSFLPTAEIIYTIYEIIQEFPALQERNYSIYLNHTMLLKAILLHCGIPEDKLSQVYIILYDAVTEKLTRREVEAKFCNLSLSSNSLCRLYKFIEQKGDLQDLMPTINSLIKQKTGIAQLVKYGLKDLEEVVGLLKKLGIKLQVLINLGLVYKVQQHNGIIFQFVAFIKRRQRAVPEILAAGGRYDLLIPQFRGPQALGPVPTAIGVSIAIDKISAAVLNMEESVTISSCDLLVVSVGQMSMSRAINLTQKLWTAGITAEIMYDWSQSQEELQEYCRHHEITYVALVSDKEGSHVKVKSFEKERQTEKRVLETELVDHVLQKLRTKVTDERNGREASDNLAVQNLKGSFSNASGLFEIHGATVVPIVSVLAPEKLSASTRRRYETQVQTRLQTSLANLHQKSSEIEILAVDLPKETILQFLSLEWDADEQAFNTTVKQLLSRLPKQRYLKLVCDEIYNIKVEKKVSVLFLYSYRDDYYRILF

Assay [2] has as its target GSK3α(h) (Homo sapiens, UniProt P49840). Briefly: GSK3α radiometric kinase assay (33P-ATP, phospho GS2 peptide). It is filed as biochemical. As to conditions: read-out: IC50 GSK3α (enzyme assay). The essentials: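 Human GSK3α incubated with 20 μM phospho-GS2 peptide in 8 mM MOPS pH 7,0, 10 mM Mg-acetate and [γ-33P]ATP (concentration as required), started with MgATP. After 40 minutes at room temperature, stopped with phosphoric acid; 33P incorporation measured by filtermat spotting and scintillation counting.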

Assay [3] has as its target GSK3β(h) (Homo sapiens, UniProt P49841). In words: GSK3β radiometric kinase assay (33P-ATP, phospho GS2 peptide). It is filed as biochemical. As to conditions: read-out: IC50 GSK3β (enzyme assay). Here is the method:
GSK3β(h) is incubated with 8 mM MOPS pH 7,0, 0,2 mM EDTA, 20 μM
[…](p)EDEEE (phosphor GS2 peptide), 10 mM Mg-acetate and [gamma-33P-ATP](specific activity approx. 500 cpm/Pmol, concentration as required). The reaction is initiated by the addition of the MgATP. After incubation for 40 minutes at the room temperature, the Reaction is stopped by the addition of 3% phosphoric acid solution. 10 μL of reaction is then spotted onto a P30 filtermat and washed three times for 5 minutes in 50 mM phosphoric acid and once in methanol prior to drying and scintillation counting.

The target in assay [4] is T1, GCN2. Briefly: Cellular assay of GCN2 activity (phospho-eIF2alpha immunocytochemistry after tryptophanol). It is filed as cell-based. Also on record: endogenous in cells; host or cells: U2OS. As to conditions: Human U2OS cells, 2 h compound, 600 μM tryptophanol 30 min. The essentials: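 Readout in human U2OS cells: compound pretreatment 2 h, then tryptophanol (600 μM final) for 30 min to trigger GCN2 signalling. Fixed, permeabilised cells quantified by immunocytochemistry for phosphorylation, normalised to DMSO controls as % effect; IC50 from concentration-response.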
Target sequence in this assay (Q9P2K8 whole entry): as the sequence (Q9P2K8 whole entry, species assumed) above

Chain of GSK3α(h) (P49840 whole entry): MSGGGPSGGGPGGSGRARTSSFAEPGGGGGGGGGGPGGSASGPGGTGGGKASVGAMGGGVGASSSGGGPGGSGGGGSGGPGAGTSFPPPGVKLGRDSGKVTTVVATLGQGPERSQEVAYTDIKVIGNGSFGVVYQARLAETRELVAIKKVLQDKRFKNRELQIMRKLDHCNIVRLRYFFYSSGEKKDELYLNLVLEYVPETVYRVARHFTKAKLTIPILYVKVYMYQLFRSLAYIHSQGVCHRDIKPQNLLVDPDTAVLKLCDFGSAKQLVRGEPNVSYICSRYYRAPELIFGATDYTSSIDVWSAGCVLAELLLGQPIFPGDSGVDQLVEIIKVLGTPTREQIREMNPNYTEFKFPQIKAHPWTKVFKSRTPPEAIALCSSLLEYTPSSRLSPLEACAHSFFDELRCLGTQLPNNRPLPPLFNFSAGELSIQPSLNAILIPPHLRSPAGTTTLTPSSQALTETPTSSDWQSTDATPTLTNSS
Chain of GSK3β(h) (P49841 whole entry): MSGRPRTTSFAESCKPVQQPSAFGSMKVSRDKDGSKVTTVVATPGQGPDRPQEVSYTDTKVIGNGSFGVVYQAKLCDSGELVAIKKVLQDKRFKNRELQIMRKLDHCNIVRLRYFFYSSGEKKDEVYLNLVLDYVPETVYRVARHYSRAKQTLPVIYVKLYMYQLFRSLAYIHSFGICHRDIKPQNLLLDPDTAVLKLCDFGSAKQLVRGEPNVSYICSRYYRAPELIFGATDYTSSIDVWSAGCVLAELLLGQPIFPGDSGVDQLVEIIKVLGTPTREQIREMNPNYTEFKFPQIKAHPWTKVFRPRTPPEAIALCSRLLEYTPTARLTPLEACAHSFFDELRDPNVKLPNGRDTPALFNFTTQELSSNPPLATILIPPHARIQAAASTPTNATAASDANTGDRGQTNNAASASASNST

With `CC(C)Oc1ccc(-n2nnc3cnc(N[C@@H]4CC[C@@H](O)C4)nc32)cc1` (relative stereo) [A210, (trans)-3-[3-(4-isopropoxy-phenyl)-3H-[1,2,3]triazolo[4,5-d]pyrimidin-5-ylamino]-cyclopentanol], the IC50 was less than 1000 nM in assay [1], less than 1000 nM in assay [2], less than 1000 nM in assay [3] and 5000 to 10000 nM in assay [4].

With `Cn1cc(-c2ccc(-n3nnc4cnc(N[C@@H]5CC[C@H](N)C5)nc43)cc2)cn1` [A118, (1S,3R)-N3-{3-[4-(1-methyl-1H-pyrazol-4-yl)-phenyl]-3H-[1,2,3]triazolo[4,5-d]pyrimidin-5-yl}-cyclopentane-1,3-diamine], the IC50 in assay [1] was less than 1000 nM; in assay [2], less than 1000 nM; in assay [3] it was less than 1000 nM; in assay [4] it was 1000 to 5000 nM.

Consider `COCCn1cc(-c2ccc(-n3nnc4cnc(N[C@@H]5CC[C@H](N)C5)nc43)cc2)cn1` [A121, (1S,3R)—N3-(3-{4-[1-(2-methoxy-ethyl)-1H-pyrazol-4-yl]-phenyl}-3H-[1,2,3]triazolo[4,5-d]pyrimidin-5-yl)-cyclopentane-1,3-diamine], for which the IC50 in assay [1] was less than 1000 nM; in assay [2] it was less than 1000 nM; in assay [3] it was 1000 to 5000 nM; in assay [4] it was 1000 to 5000 nM.

Turning to `COc1ccc(-n2nnc3cnc(N[C@@H]4CC[C@H](CN)C4)nc32)cc1` [A122, ((1R,3S)-3-aminomethyl-cyclopentyl)-[3-(4-methoxy-phenyl)-3H-[1,2,3]triazolo[4,5-d]pyrimidin-5-yl]-amine], the IC50 is less than 1000 nM in assay [1], less than 1000 nM in assay [2], 1000 to 5000 nM in assay [3] and 1000 to 5000 nM in assay [4].

As for `Cc1ccc2cc(-n3nnc4cnc(N[C@@H]5CC[C@@H](N)C5)nc43)ccc2n1` [A124, (1R,3R)—N-[3-(2-methyl-quinolin-6-yl)-3H-[1,2,3]triazolo[4,5-d]pyrimidin-5-yl]-cyclopentane-1,3-diamine], the IC50 in assay [1] was less than 1000 nM; in assay [2], less than 1000 nM; in assay [3], 1000 to 5000 nM; in assay [4], 1000 to 5000 nM.

For `CCOCCn1cc(-c2ccc(-n3nnc4cnc(N[C@@H]5CC[C@@H](N)C5)nc43)cc2)cn1` [A125, (1R,3R)—N-(3-{4-[1-(2-3thoxy-ethyl)-1H-pyrazol-4-yl]-phenyl}-3H-[1,2,3]triazolo[4,5-d]pyrimidin-5-yl)-cyclopentane-1,3-diamine], the IC50 in assay [1] was less than 1000 nM; in assay [2], less than 1000 nM; in assay [3] it was 1000 to 5000 nM; in assay [4], less than 1000 nM.

`COCCOc1ccc(-n2nnc3cnc(N[C@@H]4CC[C@@H](C(N)=O)C4)nc32)cc1` [A135, (1R,3R)-3-{3-[4-(2-methoxy-ethoxy)-phenyl]-3H-[1,2,3]triazolo[4,5-d]pyrimidin-5-ylamino}-cyclopentanecarboxylic acid amide]: the half-inhibitory concentration (IC50) in assay [1] is less than 1000 nM; in assay [2], less than 1000 nM; in assay [3], less than 1000 nM; in assay [4], 1000 to 5000 nM.

`Cc1nc2ccc(-n3nnc4cnc(N[C@@H]5CC[C@@H](C(N)=O)C5)nc43)cc2s1` [A147, (1R,3R)-3-[3-(2-methyl-benzothiazol-6-yl)-3H-[1,2,3]triazolo[4,5-d]pyrimidin-5-ylamino]-cyclopentanecarboxylic acid amide]: the IC50 in assay [1] is less than 1000 nM; in assay [2], less than 1000 nM; in assay [3], less than 1000 nM; in assay [4], 1000 to 5000 nM.

`CCOc1ccc(-n2nnc3cnc(N[C@@H]4CC[C@@H](C(N)=O)C4)nc32)cc1` [A150, (1R,3R)-3-[3-(4-ethoxy-phenyl)-3H-[1,2,3]triazolo[4,5-d]pyrimidin-5-ylamino]-cyclopentanecarboxylic acid amide]: the IC50 in assay [1] was less than 1000 nM; in assay [2], less than 1000 nM; in assay [3], less than 1000 nM; in assay [4] it was 1000 to 5000 nM.

`NC(=O)[C@@H]1CC[C@@H](Nc2ncc3nnn(-c4ccc(OC[C@H](O)C(F)(F)F)cc4)c3n2)C1` [A151, (1R,3R)-3-{3-[4-((S)-3,3,3-trifluoro-2-hydroxy-propoxy)-phenyl]-3H-[1,2,3]triazolo[4,5-d]pyrimidin-5-ylamino}-cyclopentanecarboxylic acid amide]: the IC50 in assay [1] was less than 1000 nM; in assay [2], less than 1000 nM; in assay [3], less than 1000 nM; in assay [4], 1000 to 5000 nM.

In the case of `COc1ccc(-n2nnc3cnc(N[C@@H]4CC[C@@H](C(N)=O)C4)nc32)cc1F` [A152, (1R,3R)-3-[3-(3-fluoro-4-methoxy-phenyl)-3H-[1,2,3]triazolo[4,5-d]pyrimidin-5-ylamino]-cyclopentanecarboxylic acid amide], the IC50 in assay [1] was less than 1000 nM; in assay [2], less than 1000 nM; in assay [3], less than 1000 nM; in assay [4], 1000 to 5000 nM.

Regarding `NC(=O)[C@@H]1CC[C@@H](Nc2ncc3nnn(-c4ccc(OCCO)cc4)c3n2)C1` [A153, (1R,3R)-3-{3-[4-(2-hydroxy-ethoxy)-phenyl]-3H-[1,2,3]triazolo[4,5-d]pyrimidin-5-ylamino}-cyclopentanecarboxylic acid amide], the IC50 is less than 1000 nM in assay [1], less than 1000 nM in assay [2], less than 1000 nM in assay [3] and 5000 to 10000 nM in assay [4].

In the case of `NC(=O)[C@@H]1CC[C@@H](Nc2ncc3nnn(-c4ccc(OC[C@@H](O)C(F)(F)F)cc4)c3n2)C1` [A155, (1R,3R)-3-{3-[4-((R)-3,3,3-trifluoro-2-hydroxy-propoxy)-phenyl]-3H-[1,2,3]triazolo[4,5-d]pyrimidin-5-ylamino}-cyclopentanecarboxylic acid amide], the IC50 in assay [1] is less than 1000 nM; in assay [2], less than 1000 nM; in assay [3], less than 1000 nM; in assay [4] it was 1000 to 5000 nM.

Consider `CCOc1ccc(-n2nnc3cnc(N[C@@H]4CC[C@@H](C(N)=O)C4)nc32)cc1F` [A157, (1R,3R)-3-[3-(4-ethoxy-3-fluoro-phenyl)-3H-[1,2,3]triazolo[4,5-d]pyrimidin-5-ylamino]-cyclopentanecarboxylic acid amide], for which the IC50 is less than 1000 nM in assay [1], less than 1000 nM in assay [2], less than 1000 nM in assay [3] and 1000 to 5000 nM in assay [4].

Regarding `NC(=O)[C@@H]1CC[C@@H](Nc2ncc3nnn(-c4ccc(N5CCOCC5)c(F)c4)c3n2)C1` [A158, (1R,3R)-3-[3-(3-fluoro-4-morpholin-4-yl-phenyl)-3H-[1,2,3]triazolo[4,5-d]-pyrimidin-5-ylamino]-cyclopentanecarboxylic acid amide], the IC50 in assay [1] is less than 1000 nM; in assay [2] it was less than 1000 nM; in assay [3], less than 1000 nM; in assay [4] it was 5000 to 10000 nM.

With `COc1ccc(-n2nnc3cnc(N[C@@H]4CC[C@@H](C(N)=O)C4)nc32)cc1C` [A162, (1R,3R)-3-[3-(4-methoxy-3-methyl-phenyl)-3H-[1,2,3]triazolo[4,5-d]pyrimidin-5-ylamino]-cyclopentanecarboxylic acid amide], the IC50 in assay [1] is less than 1000 nM; in assay [2], less than 1000 nM; in assay [3], less than 1000 nM; in assay [4] it was 5000 to 10000 nM.

As to `CC(C)Oc1ccc(-n2nnc3cnc(N[C@@H]4CC[C@@H](C(N)=O)C4)nc32)cc1` [A164, (1R,3R)-3-[3-(4-isopropoxy-phenyl)-3H-[1,2,3]triazolo[4,5-d]pyrimidin-5-ylamino]-cyclopentanecarboxylic acid amide], the IC50 in assay [1] was less than 1000 nM; in assay [2] it was less than 1000 nM; in assay [3], less than 1000 nM; in assay [4], 5000 to 10000 nM.

The term IC50 denotes the concentration needed to halve the response being measured.
